Laboratory results as given in US7435837B2, “Dihydrobenzofuranyl alkanamine derivatives and methods for using same” (Wyeth, priority 2003, dated 2008).
“And” between values parts separate entries of the source, which are not always exact repeats. Equal values may be shown once. Where a name gives a salt, the structure may show the parent alone.

Tests used:
[1] = biological target: T1, human 5-hydroxytryptamine-2C (h5-HT2C) receptor (Homo sapiens, UniProt P28335); test: [125I]DOI binding to membranes of CHO cells expressing the human 5-HT2C receptor; settings: [125I]DOI radioligand, CHO cell membranes, room temperature 60 min; read-out: 5-HT2C Affinity Ki
T1 construct: expressed in transfected cells; host or cells: CHO (Chinese Hamster Ovary) cells; membranes
T1 sequence (P28335 33-458): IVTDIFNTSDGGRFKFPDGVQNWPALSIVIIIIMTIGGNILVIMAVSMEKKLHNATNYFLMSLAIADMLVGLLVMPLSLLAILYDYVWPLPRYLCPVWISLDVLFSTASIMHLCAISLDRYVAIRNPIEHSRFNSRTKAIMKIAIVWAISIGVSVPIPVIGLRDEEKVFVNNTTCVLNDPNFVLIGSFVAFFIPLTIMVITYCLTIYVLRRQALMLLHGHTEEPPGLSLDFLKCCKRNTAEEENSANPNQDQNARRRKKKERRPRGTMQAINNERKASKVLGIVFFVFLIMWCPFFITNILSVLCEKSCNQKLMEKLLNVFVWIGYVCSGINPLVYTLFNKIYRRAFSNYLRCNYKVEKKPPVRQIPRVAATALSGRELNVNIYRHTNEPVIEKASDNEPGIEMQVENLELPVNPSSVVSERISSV

human 5-HT2C receptor = biological target: T2, human 5-HT2C receptor (Homo sapiens, UniProt P28335); test: 5-HT2C receptor-stimulated calcium mobilization (FLIPR) in CHO cells; format: cell-based; settings: for Emax: CHO, read-out: 5-HT2C Function Emax (%); for Emax / 5-HT2C Function Emax (%): percentage of the response observed with a maximally effective concentration of 5-HT; for EC50: calcium mobilization, CHO cells stably expressing human 5-HT2C, read-out: 5-HT2C Function EC50;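 on all read-outs here: Fluo-3-AM fluorescence read on FLIPR every 1 s, agonist added after 10 baseline reads, response taken as peak minus lowest raw fluorescence count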
T2 sequence (P28335 33-458): T1 sequence (P28335 33-458)

Row | melting point | Ki [1] | Emax (human 5-HT2C receptor) | EC50 (human 5-HT2C receptor) | 5-HT2C Function Emax (%) (human 5-HT2C receptor) | Structure (SMILES)
1 | 156 to 158 °C |  |  |  |  | CN(C)C[C@H]1Cc2cc(F)cc(-c3c(Cl)cccc3Cl)c2O1 (as salt: hydrochloride) [Example 547, (R)-[7-(2,6-dichloro-phenyl)-5-Fluoro-2,3-dihydro-benzofuran-2-ylmethyl]dimethylamine]
2 | 148 to 150 °C |  |  |  |  | Cc1ccc(Cl)cc1-c1cc(F)cc2c1O[C@@H](CN)C2 (as salt: hydrochloride) [Example 548, {[(2R)-7-(5-chloro-2-methylphenyl)-5-fluoro-2,3-dihydro-1-benzofuran-2-yl]methyl}amine]
3 | 183 to 185 °C |  |  |  |  | Cc1cc(Cl)ccc1-c1cc(F)cc2c1O[C@@H](CN)C2 (as salt: hydrochloride) [Example 549, {[(2R)-7-(4-chloro-2-methylphenyl)-5-fluoro-2,3-dihydro-1-benzofuran-2-yl]methyl}amine]
4 | 228 to 230 °C and 231 to 233 °C |  |  |  |  | NC[C@H]1Cc2cc(F)cc(-c3c(Cl)cccc3Cl)c2O1 (as salt: hydrochloride) [Example 550, (−)-{[7-(2,6-dichlorophenyl)-5-fluoro-2,3-dihydro-1-benzofuran-2-yl]methyl}amine]
5 | 218 to 221 °C |  |  |  |  | NCC1Cc2ccc(-c3ccccc3)cc2O1 (racemic) (as salt: hydrobromid) [Example 31, (±)-(6-phenyl-2,3-dihydro-1-benzofuran-2-yl)methanamine]
6 | 229 to 230 °C |  |  |  |  | NCC1Cc2c(cccc2-c2ccccc2)O1 (racemic) (as salt: hydrochloride) [Example 1, (±)-1-(4-phenyl-2,3-dihydro-1-benzofuran-2-yl)methanamine]
7 | 231 to 234 °C |  |  |  |  | Cc1ccccc1-c1cccc2c1CC(CN)O2 (racemic) (as salt: hydrochloride) [Example 4, (±)-1-[4-(2-methylphenyl)-2,3-dihydro-1-benzofuran-2-yl]methanamine]
8 | 168 to 171 °C |  |  |  |  | COc1cccc2c1OC(CN)C2 (racemic) (as salt: hydrochloride) [Example 7, (±)-1-(7-methoxy-2,3-dihydro-1-benzofuran-2-yl)methanamine]
9 | 210 to 213 °C |  |  |  |  | NCC1Cc2cc(Cl)cc(C3CCCCC3)c2O1 (racemic) (as salt: hydrochloride) [Example 11, (±)-(5-chloro-7-cyclohexyl-2,3-dihydro-1-benzofuran-2-yl)methylamine]
10 |  | 128 nM | 80% | 112 nM |  | NCC1Cc2cc(F)cc(-c3cccnc3)c2O1 (single isomer, unassigned; (-)) [Example 207, (−)-[(5-fluoro-7-pyridin-3-yl-2,3-dihydro-1-benzofuran-2-yl)methyl]amine]
11 |  | 0.4 nM |  | 6 nM | 100% | Cc1cccc(C)c1-c1cc(F)cc2c1OC(CN)C2 (single isomer, unassigned; (-)) [Example 229, (−)-{[7-(2,6-dimethylphenyl)-5-fluoro-2,3-dihydro-1-benzofuran-2-yl]methyl}amine]
12 |  | 2 nM | 100% | 57 nM |  | NCC1Cc2cc(Cl)cc(-c3cccc(F)c3F)c2O1 (single isomer, unassigned; (-)) [Example 245, (−)-{[5-chloro-7-(2,3-difluorophenyl)-2,3-dihydro-1-benzofuran-2-yl]methyl}amine]
13 |  | 1.1 nM | 100% | 3 nM |  | NCC1Cc2cc(Cl)cc(-c3ccc(Cl)cc3Cl)c2O1 (single isomer, unassigned; (-)) [Example 252, (−)-{[5-chloro-7-(2,4-dichlorophenyl)-2,3-dihydro-1-benzofuran-2-yl]methyl}amine]
14 |  | 0.5 nM | 90% | 67 nM |  | Cc1cccc(C)c1-c1cc(Cl)cc2c1OC(CN)C2 (single isomer, unassigned; (-)) [Example 261, (−)-{[5-chloro-7-(2,6-dimethylphenyl)-2,3-dihydro-1-benzofuran-2-yl]methyl}amine]
15 |  | 11 nM | 90% | 30 nM |  | Cc1cc2c(c(-c3ccc(Cl)cc3Cl)c1)OC(CN)C2 (single isomer, unassigned; (-)) [Example 298, (−)-{[7-(2,4-dichlorophenyl)-5-methyl-2,3-dihydro-1-benzofuran-2-yl]methyl}amine]
16 |  | 8.5 nM |  | 149 nM | 60% | CNCC1Cc2cccc(-c3ccccc3C)c2O1 (single isomer, unassigned; (-)) [Example 407, (−)-N-methyl-1-[7-(2-methylphenyl)-2,3-dihydro-1-benzofuran-2-yl]methanamine]
17 |  | 2.6 nM |  | 57 nM | 80% | CNCC1Cc2cccc(-c3ccccc3Cl)c2O1 (single isomer, unassigned; (-)) [Example 411, (−)-N-methyl-1-[7-(2-chlorophenyl)-2,3-dihydro-1-benzofuran-2-yl]methanamine]
18 |  | 0.03 nM | 90% | 7 nM |  | CNCC1Cc2cccc(-c3c(Cl)cccc3Cl)c2O1 (single isomer, unassigned; (-)) [Example 434, (−)-{[7-(2,6-dichlorophenyl)-2,3-dihydro-1-benzofuran-2-yl]methyl}methylamine]
19 |  | 10 nM | 70% | 531 nM |  | CNCC1Cc2cc(F)cc(-c3ccccc3C)c2O1 (single isomer, unassigned; (-)) [Example 441, (−)-{[5-fluoro-7-(2-methylphenyl)-2,3-dihydro-1-benzofuran-2-yl]methyl}methylamine]
20 |  | 0.31 nM |  | 137 nM | 80% | CNCC1Cc2cc(F)cc(-c3cc(Cl)ccc3Cl)c2O1 (single isomer, unassigned; (-)) [Example 451, (−)-{[5-fluoro-7-(2,5-dichlorophenyl)-2,3-dihydro-1-benzofuran-2-yl]methyl}methylamine]
21 |  | 0.34 nM |  | 132 nM | 90% | CNCC1Cc2cc(C)cc(-c3cc(Cl)ccc3Cl)c2O1 (single isomer, unassigned; (-)) [Example 488, (−)-{[7-(2,5-dichlorophenyl)-5-methyl-2,3-dihydro-1-benzofuran-2-yl]methyl}methylamine]
22 |  | 0.3 nM |  | 7 nM | 90% | CNCC1Cc2cc(F)cc(-c3c(C)cccc3C)c2O1 (single isomer, unassigned; (-)) [Example 559, (−)-{[7-(2,6-dimethylphenyl)-5-fluoro-2,3-dihydro-1-benzofuran-2-yl]methyl}methylamine]
23 |  | 0.35 nM | 100% | 2 nM |  | CNCC1Cc2cc(OC)cc(-c3c(C)cccc3C)c2O1 (single isomer, unassigned; (-)) [Example 560, (−)-{[7-(2,6-dimethylphenyl)-5-methoxy-2,3-dihydro-1-benzofuran-2-yl]methyl}methylamine]
24 |  | 0.14 nM | 100% | 0.1 nM |  | CNC[C@H]1Cc2cc(F)cc(-c3ccccc3Cl)c2O1 [Example 545, (R)-[7-(2-chloro-phenyl)-5-fluoro-2,3-dihydro-benzofuran-2-ylmethyl]-methyl-amine]
